Measured values from PubChem BioAssay (NCI).
Values joined by “and” are separate entries in the source; they are usually repeats but may differ in a detail not shown here. Equal entries are not always repeated.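 Dose response: 5 concentrations. Exposure: 48 h. Format: 96-well plates. Endpoint: linear interpolation; highest concentration if not reached. GI50 = concentration required for 50% inhibition of growth. The concentration for full growth arrest is given as TGI.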

Key:
Assay in all cases: growth of human tumour cells (NCI), 48 h; in the data active = GI50 below about 0.43 µM; inactive = the rest
UACC-62 melanoma = system: UACC-62 melanoma
A498 renal = system: A498 renal
A549 NSCLC = system: A549 NSCLC
LOX IMVI melanoma = system: LOX IMVI melanoma
NCI-H460 lung = system: NCI-H460 lung
SNB-19 CNS = system: SNB-19 CNS
IGROV1 ovarian = system: IGROV1 ovarian
RPMI-8226 leukemia = system: RPMI-8226 leukemia
CAKI-1 renal = system: CAKI-1 renal
K-562 leukemia = system: K-562 leukemia

NC(=O)c1cccc2cn(-c3ccc([C@@H]4CCCNC4)cc3)nc12
20.2 µM: TGI (CAKI-1 renal)
52.3 µM: TGI (IGROV1 ovarian)
> 92.7 µM: TGI (SNB-19 CNS)
27 µM: TGI (UACC-62 melanoma)
inactive: GI50 (UACC-62 melanoma) 13.6 µM | GI50 (A498 renal) 19.2 µM | GI50 (A549 NSCLC) 13.1 µM | GI50 (LOX IMVI melanoma) 8.16 µM | GI50 (NCI-H460 lung) 4 µM | GI50 (SNB-19 CNS) 17.1 µM | GI50 (IGROV1 ovarian) 15.3 µM | GI50 (RPMI-8226 leukemia) 22.5 µM | GI50 (CAKI-1 renal) 5.77 µM | GI50 (K-562 leukemia) 14.1 µM
18.7 µM: TGI (NCI-H460 lung)
36.8 µM: TGI (K-562 leukemia)
22.2 µM: TGI (LOX IMVI melanoma)
40.8 µM: TGI (A498 renal)
> 80.6 µM: TGI (RPMI-8226 leukemia)
28 µM: TGI (A549 NSCLC)

CCCCC(=O)OCC(=O)[C@]1(O)Cc2c(O)c3c(c(O)c2[C@@H](OC2CC(NC(=O)C(F)(F)F)C(O)C(C)O2)C1)C(=O)c1c(OC)cccc1C3=O (some centres not stated)
3.83 µM: TGI (A549 NSCLC)
0.948 µM: TGI (A498 renal)
> 21.9 µM: TGI (K-562 leukemia)
1.04 µM: TGI (UACC-62 melanoma)
17 µM: TGI (IGROV1 ovarian)
32.7 µM: TGI (RPMI-8226 leukemia)
2.48 µM: TGI (NCI-H460 lung)
3.02 µM: TGI (SNB-19 CNS)
1.37 µM: TGI (LOX IMVI melanoma)
2.63 µM: TGI (CAKI-1 renal)

CCOc1ccc(NC(=O)C(=O)CC(=O)c2c[n+](=O)c3cc(C)c(C)cc3n2[O-])cc1
> 100 µM: TGI (UACC-62 melanoma) | TGI (A498 renal) | TGI (A549 NSCLC) | TGI (LOX IMVI melanoma) | TGI (NCI-H460 lung) | TGI (SNB-19 CNS) | TGI (IGROV1 ovarian) | TGI (RPMI-8226 leukemia) | TGI (CAKI-1 renal) | TGI (K-562 leukemia)

O=C1C2C(C(=O)N1OS(=O)(=O)c1ccccc1)N(Cc1ccccc1)C(=O)N2Cc1ccccc1 (configuration not stated)
> 100 µM: TGI (UACC-62 melanoma) | TGI (A498 renal) | TGI (A549 NSCLC) | TGI (LOX IMVI melanoma) | TGI (NCI-H460 lung) | TGI (SNB-19 CNS) | TGI (IGROV1 ovarian) | TGI (RPMI-8226 leukemia) | TGI (CAKI-1 renal) | TGI (K-562 leukemia)

CCCCCCCCCCCCCCCCCC(CCCCCCCCCCCCCCCCC)OP(=O)(O)O
> 100 µM: TGI (UACC-62 melanoma) | TGI (A498 renal) | TGI (A549 NSCLC) | TGI (LOX IMVI melanoma) | TGI (NCI-H460 lung) | TGI (SNB-19 CNS) | TGI (IGROV1 ovarian) | TGI (RPMI-8226 leukemia) | TGI (CAKI-1 renal) | TGI (K-562 leukemia)

COC(=O)[C@@H]1[C@H](O)[C@H](C)[C@H](O)[C@@](C)(O)/C=C\C=C(C)C(=O)Nc2c(C)c(OC(C)=O)c3c(c2O)C(=O)C(C)=C2OCOC(=C23)C(C)=C[C@@](C)(O)[C@H](O)[C@@H](C)[C@H]1OC(C)=O
> 100 µM and 66.9 µM: TGI (IGROV1 ovarian) | TGI (K-562 leukemia)
inactive: GI50 (UACC-62 melanoma) 25.1 µM | GI50 (A549 NSCLC) > 66.9 µM | GI50 (NCI-H460 lung) > 66.9 µM | GI50 (SNB-19 CNS) > 66.9 µM | GI50 (RPMI-8226 leukemia) 24.1 µM | GI50 (CAKI-1 renal) > 66.9 µM | GI50 (K-562 leukemia) 32.4 µM
> 100 µM and 66.9 µM and 96.5 µM: TGI (RPMI-8226 leukemia)
> 100 µM and 66.9 µM and 41.7 µM: TGI (LOX IMVI melanoma)
> 100 µM and 66.9 µM and 54.5 µM: TGI (UACC-62 melanoma)
> 100 µM: TGI (A498 renal) | TGI (A549 NSCLC) | TGI (NCI-H460 lung) | TGI (SNB-19 CNS) | TGI (CAKI-1 renal)

COc1cc(Cc2cnc(/N=C3\C(=O)N(CN4CCN(c5c(F)cc6c(=O)c(C(=O)O)cn(C7CC7)c6c5OC)CC4C)c4ccc(F)cc43)nc2N)cc(OC)c1OC (configuration not stated)
> 100 µM: TGI (A549 NSCLC) | TGI (NCI-H460 lung) | TGI (IGROV1 ovarian) | TGI (K-562 leukemia)
51.3 µM: TGI (SNB-19 CNS)
4.74 µM: TGI (LOX IMVI melanoma)
49.7 µM: TGI (A498 renal)
8.24 µM: TGI (RPMI-8226 leukemia)
36 µM: TGI (CAKI-1 renal)
inactive: GI50 (UACC-62 melanoma) 12.6 µM | GI50 (A498 renal) 26 µM | GI50 (A549 NSCLC) 27 µM | GI50 (LOX IMVI melanoma) 2.38 µM | GI50 (NCI-H460 lung) 18.9 µM | GI50 (SNB-19 CNS) 17.7 µM | GI50 (IGROV1 ovarian) 25.1 µM | GI50 (RPMI-8226 leukemia) 2.31 µM | GI50 (CAKI-1 renal) 15.5 µM | GI50 (K-562 leukemia) 6.41 µM
26 µM: TGI (UACC-62 melanoma)

COC1CCC2C(NS(=O)(=O)c3ccc(C)cc3)CCCC2O1 (configuration not stated) (tested in a mixture with another compound)
13 µM: TGI (LOX IMVI melanoma)
14.7 µM: TGI (RPMI-8226 leukemia)
27.8 µM: TGI (K-562 leukemia)
> 34.5 µM: TGI (UACC-62 melanoma) | TGI (A498 renal) | TGI (A549 NSCLC) | TGI (NCI-H460 lung) | TGI (SNB-19 CNS) | TGI (IGROV1 ovarian) | TGI (CAKI-1 renal)

O=C1C(=O)N(c2ccc(Cl)cc2Cl)C(=O)C(=O)C1c1nc2ccccc2s1
> 100 µM: TGI (UACC-62 melanoma) | TGI (A498 renal) | TGI (A549 NSCLC) | TGI (LOX IMVI melanoma) | TGI (NCI-H460 lung) | TGI (SNB-19 CNS) | TGI (IGROV1 ovarian) | TGI (RPMI-8226 leukemia) | TGI (CAKI-1 renal) | TGI (K-562 leukemia)

COc1ccc2c(C3=C(c4cn(C)c5ccccc45)C(=O)NC3=O)cn(C)c2c1
> 25 µM: TGI (UACC-62 melanoma) | TGI (A549 NSCLC) | TGI (LOX IMVI melanoma) | TGI (NCI-H460 lung) | TGI (SNB-19 CNS) | TGI (IGROV1 ovarian) | TGI (RPMI-8226 leukemia) | TGI (CAKI-1 renal) | TGI (K-562 leukemia)
inactive: GI50 (SNB-19 CNS) > 25 µM
0.215 µM: TGI (A498 renal)
active: GI50 (UACC-62 melanoma) 0.137 µM | GI50 (A498 renal) 0.054 µM | GI50 (A549 NSCLC) 0.135 µM | GI50 (LOX IMVI melanoma) 0.154 µM | GI50 (NCI-H460 lung) 0.0982 µM | GI50 (IGROV1 ovarian) 0.147 µM | GI50 (RPMI-8226 leukemia) 0.11 µM | GI50 (CAKI-1 renal) 0.0941 µM | GI50 (K-562 leukemia) 0.101 µM

Clc1cc2nsnc2c(Cl)n1
62.5 µM: TGI (RPMI-8226 leukemia)
86.3 µM: TGI (IGROV1 ovarian)
24.5 µM: TGI (CAKI-1 renal)
> 100 µM: TGI (UACC-62 melanoma) | TGI (A498 renal) | TGI (A549 NSCLC) | TGI (LOX IMVI melanoma) | TGI (NCI-H460 lung)
36.7 µM: TGI (SNB-19 CNS)
51.9 µM: TGI (K-562 leukemia)

O=C(O)CSc1ccc([N+](=O)[O-])cc1[N+](=O)[O-]
> 100 µM: TGI (UACC-62 melanoma) | TGI (A498 renal) | TGI (A549 NSCLC) | TGI (LOX IMVI melanoma) | TGI (NCI-H460 lung) | TGI (SNB-19 CNS) | TGI (IGROV1 ovarian) | TGI (RPMI-8226 leukemia) | TGI (CAKI-1 renal) | TGI (K-562 leukemia)

CC1=C(C(=O)NCc2ccccc2)C(/C=C/c2ccccc2)C(C(=O)NCc2ccccc2)=C(C)N1
> 100 µM: TGI (UACC-62 melanoma) | TGI (A498 renal) | TGI (A549 NSCLC) | TGI (LOX IMVI melanoma) | TGI (NCI-H460 lung) | TGI (SNB-19 CNS) | TGI (IGROV1 ovarian) | TGI (RPMI-8226 leukemia) | TGI (CAKI-1 renal) | TGI (K-562 leukemia)

O=C(O)CCc1coc2ccc(O)cc12
> 100 µM: TGI (UACC-62 melanoma) | TGI (A498 renal) | TGI (A549 NSCLC) | TGI (LOX IMVI melanoma) | TGI (NCI-H460 lung) | TGI (SNB-19 CNS) | TGI (IGROV1 ovarian) | TGI (RPMI-8226 leukemia) | TGI (CAKI-1 renal) | TGI (K-562 leukemia)

COc1cc(/C=N/NC(=O)c2ccc(C(F)(F)F)nc2Nc2ccc(Cl)cc2C)ccc1O
inactive: GI50 (UACC-62 melanoma) 1.88 µM | GI50 (A498 renal) 3.1 µM | GI50 (A549 NSCLC) 3.54 µM | GI50 (LOX IMVI melanoma) 1.36 µM | GI50 (NCI-H460 lung) 2.65 µM | GI50 (SNB-19 CNS) 3.73 µM | GI50 (IGROV1 ovarian) 0.838 µM | GI50 (RPMI-8226 leukemia) 2.11 µM | GI50 (CAKI-1 renal) 2.23 µM | GI50 (K-562 leukemia) 1.31 µM
11.5 µM: TGI (LOX IMVI melanoma)
6.1 µM: TGI (RPMI-8226 leukemia)
14.5 µM: TGI (A498 renal) | TGI (SNB-19 CNS)
7.17 µM: TGI (K-562 leukemia)
15.1 µM: TGI (A549 NSCLC)
11.7 µM: TGI (NCI-H460 lung)
5.01 µM: TGI (UACC-62 melanoma)
7.02 µM: TGI (IGROV1 ovarian)
10.8 µM: TGI (CAKI-1 renal)

COC1=CC(=O)c2nc(-c3ccncc3)[nH]c2C1=O
inactive: GI50 (UACC-62 melanoma) > 100 µM | GI50 (A498 renal) > 100 µM | GI50 (A549 NSCLC) > 100 µM | GI50 (LOX IMVI melanoma) > 100 µM | GI50 (NCI-H460 lung) > 100 µM | GI50 (SNB-19 CNS) > 100 µM | GI50 (IGROV1 ovarian) > 100 µM | GI50 (RPMI-8226 leukemia) > 100 µM | GI50 (CAKI-1 renal) 86.6 µM | GI50 (K-562 leukemia) > 100 µM
> 100 µM: TGI (UACC-62 melanoma) | TGI (A498 renal) | TGI (A549 NSCLC) | TGI (LOX IMVI melanoma) | TGI (NCI-H460 lung) | TGI (SNB-19 CNS) | TGI (IGROV1 ovarian) | TGI (RPMI-8226 leukemia) | TGI (CAKI-1 renal) | TGI (K-562 leukemia)
